Data: US20230085307A1, “PYRIDAZINONE COMPOUND AND HERBICIDE” (NISSAN CHEMICAL CORPORATION, priority 2019, published 2023)

Assays:
[1] = system: Italian ryegrass; assay: Test Example 5: herbicidal effect by foliage application, plastic box (Table 20, symbol K); type: in vivo, Italian ryegrass (Lolium multiflorum); conditions: foliage application, 320 g/ha
In short: (§1)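 Post-emergence foliar test in sterilized diluvial soil. Compound applied as water-diluted emulsion at a predetermined rate to 14-day-old plants; evaluation at three weeks.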

[2] = system: Chinese sprangletop; assay: Test Example 3: herbicidal effect by foliage application, Wagner pot (Table 18, symbol D); type: in vivo, chinese sprangletop (Leptochloa chinensis); conditions: amount of applied herbicide 320 g/ha
In short: (§2)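 Plants were sown in alluvial soil held under 0.1–0.5 cm standing water and grown 14 days in a greenhouse at 25–30 °C. An emulsifiable formulation, water-diluted to the set dose, was then sprayed onto the foliage, and effects were scored three weeks later using previously defined criteria.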

[3] = system: false cleavers; assay: Test Example 4: herbicidal effect by soil treatment (Table 19, symbol Q); type: in vivo, false cleavers (Galium spurium); conditions: amount of applied herbicide 320 g/ha
In short: (§3)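 Scoring uses the grading scale of an earlier test, three weeks post-application. Treatment consists of spraying a diluted emulsion formulation across the surface of sterilized diluvial soil in which seeds are buried near 1.5 cm deep; boxes are kept in a greenhouse between 25° C. and 30° C.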

[4] = system: chickweed; assay: Test Example 4: herbicidal effect by soil treatment (Table 19, symbol P); type: in vivo, common chickweed (Stellaria media); conditions: amount of applied herbicide 320 g/ha
In short: as §3

[5] = system: green foxtail; assay: Test Example 5: herbicidal effect by foliage application, plastic box (Table 20, symbol G); type: in vivo, green foxtail (Setaria viridis); conditions: foliage application, 320 g/ha
In short: as §1

[6] = system: barnyard grass; assay: Test Example 3: herbicidal effect by foliage application, Wagner pot (Table 18, symbol H); type: in vivo, barnyard grass (Echinochloa crus-galli); conditions: amount of applied herbicide 320 g/ha
In short: as §2

[7] = system: barnyard grass; assay: Test Example 5: herbicidal effect by foliage application, plastic box (Table 20, symbol H); type: in vivo, barnyard grass (Echinochloa crus-galli); conditions: foliage application, 320 g/ha
In short: as §1

[8] = system: southern crabgrass; assay: Test Example 5: herbicidal effect by foliage application, plastic box (Table 20, symbol F); type: in vivo, southern crabgrass (Digitaria ciliaris); conditions: foliage application, 320 g/ha
In short: as §1

[9] = system: false cleavers; assay: Test Example 5: herbicidal effect by foliage application, plastic box (Table 20, symbol Q); type: in vivo, false cleavers (Galium spurium); conditions: foliage application, 320 g/ha
In short: as §1

[10] = system: lambsquarters; assay: Test Example 4: herbicidal effect by soil treatment (Table 19, symbol O); type: in vivo, lambsquarters (Chenopodium album); conditions: amount of applied herbicide 320 g/ha
In short: as §3

[11] = system: redroot pigweed; assay: Test Example 5: herbicidal effect by foliage application, plastic box (Table 20, symbol N); type: in vivo, redroot pigweed (Amaranthus retroflexus); conditions: foliage application, 320 g/ha
In short: as §1

[12] = system: windgrass; assay: Test Example 5: herbicidal effect by foliage application, plastic box (Table 20, symbol L); type: in vivo, windgrass (Apera spica-venti); conditions: foliage application, 320 g/ha
In short: as §1

[13] = system: southern crabgrass; assay: Test Example 4: herbicidal effect by soil treatment (Table 19, symbol F); type: in vivo, southern crabgrass (Digitaria ciliaris); conditions: amount of applied herbicide 320 g/ha
In short: as §3

[14] = system: windgrass; assay: Test Example 4: herbicidal effect by soil treatment (Table 19, symbol L); type: in vivo, windgrass (Apera spica-venti); conditions: amount of applied herbicide 320 g/ha
In short: as §3

[15] = system: blackgrass; assay: Test Example 4: herbicidal effect by soil treatment (Table 19, symbol J); type: in vivo, blackgrass (Alopecurus myosuroides); conditions: amount of applied herbicide 320 g/ha
In short: as §3

[16] = system: barnyard grass; assay: Test Example 4: herbicidal effect by soil treatment (Table 19, symbol H); type: in vivo, barnyard grass (Echinochloa crus-galli); conditions: amount of applied herbicide 320 g/ha
In short: as §3

[17] = system: Italian ryegrass; assay: Test Example 4: herbicidal effect by soil treatment (Table 19, symbol K); type: in vivo, Italian ryegrass (Lolium multiflorum); conditions: amount of applied herbicide 320 g/ha
In short: as §3

[18] = system: wild oat; assay: Test Example 5: herbicidal effect by foliage application, plastic box (Table 20, symbol I); type: in vivo, wild oat (Avena fatua); conditions: foliage application, 320 g/ha
In short: as §1

[19] = system: persian speedwell; assay: Test Example 4: herbicidal effect by soil treatment (Table 19, symbol R); type: in vivo, Persian speedwell (Veronica persica); conditions: amount of applied herbicide 320 g/ha
In short: as §3

[20] = system: lambsquarters; assay: Test Example 5: herbicidal effect by foliage application, plastic box (Table 20, symbol O); type: in vivo, lambsquarters (Chenopodium album); conditions: foliage application, 320 g/ha
In short: as §1

[21] = system: wild oat; assay: Test Example 4: herbicidal effect by soil treatment (Table 19, symbol I); type: in vivo, wild oat (Avena fatua); conditions: amount of applied herbicide 320 g/ha
In short: as §3

[22] = system: blackgrass; assay: Test Example 5: herbicidal effect by foliage application, plastic box (Table 20, symbol J); type: in vivo, blackgrass (Alopecurus myosuroides); conditions: foliage application, 320 g/ha
In short: as §1

[23] = system: redroot pigweed; assay: Test Example 4: herbicidal effect by soil treatment (Table 19, symbol N); type: in vivo, redroot pigweed (Amaranthus retroflexus); conditions: amount of applied herbicide 320 g/ha
In short: as §3

[24] = system: persian speedwell; assay: Test Example 5: herbicidal effect by foliage application, plastic box (Table 20, symbol R); type: in vivo, Persian speedwell (Veronica persica); conditions: foliage application, 320 g/ha
In short: as §1

[25] = system: rice flat sedge; assay: Test Example 3: herbicidal effect by foliage application, Wagner pot (Table 18, symbol E); type: in vivo, rice flat sedge (Cyperus iria); conditions: amount of applied herbicide 320 g/ha
In short: as §2

[26] = system: velvetleaf; assay: Test Example 5: herbicidal effect by foliage application, plastic box (Table 20, symbol M); type: in vivo, velvetleaf (Abutilon theophrasti); conditions: foliage application, 320 g/ha
In short: as §1

[27] = system: green foxtail; assay: Test Example 4: herbicidal effect by soil treatment (Table 19, symbol G); type: in vivo, green foxtail (Setaria viridis); conditions: amount of applied herbicide 320 g/ha
In short: as §3

[28] = system: velvetleaf; assay: Test Example 4: herbicidal effect by soil treatment (Table 19, symbol M); type: in vivo, velvetleaf (Abutilon theophrasti); conditions: amount of applied herbicide 320 g/ha
In short: as §3

[29] = system: chickweed; assay: Test Example 5: herbicidal effect by foliage application, plastic box (Table 20, symbol P); type: in vivo, common chickweed (Stellaria media); conditions: foliage application, 320 g/ha
In short: as §1

[30] = evaluated three weeks after application

`COc1ccc(F)cc1-c1sc2ccc(C)cc2c1-c1c(O)c(C)nn(C)c1=O` [2-150] was tested, and the “herbicidal effect on K: Italian ryegrass (criteria 0-5)” value [1, 30] was 3 (Herbicidal rate of 40% or more and less than 70%), the “herbicidal effect on D: Chinese sprangletop” value [2] was 2 (Herbicidal rate of 20% or more and less than 40%) and the “Q: false cleavers, herbicidal effect rating” value [3] was 0 (Herbicidal rate of 5% or less (almost no effect)). For the same molecule, the “P: chickweed, herbicidal effect rating” value [4] was 4 (Herbicidal rate of 70% or more and less than 90%), the “herbicidal effect on G: green foxtail (criteria 0-5)” value [5, 30] was 0 (Herbicidal rate of 5% or less (almost no effect)) and the “herbicidal effect on H: barnyard grass” value [6] was 4 (Herbicidal rate of 70% or more and less than 90%). For the same molecule, the “herbicidal effect on H: barnyard grass (criteria 0-5)” value [7, 30] was 0 (Herbicidal rate of 5% or less (almost no effect)), the “herbicidal effect on F: southern crabgrass (criteria 0-5)” value [8, 30] was 0 (Herbicidal rate of 5% or less (almost no effect)) and the “herbicidal effect on Q: false cleavers (criteria 0-5)” value [9, 30] was 4 (Herbicidal rate of 70% or more and less than 90%). For the same molecule, the “O: lambsquarters, herbicidal effect rating” value [10] was 2 (Herbicidal rate of 20% or more and less than 40%), the “herbicidal effect on N: redroot pigweed (criteria 0-5)” value [11, 30] was 5 (Herbicidal rate of 90% or more (almost completely withered)) and the “herbicidal effect on L: windgrass (criteria 0-5)” value [12, 30] was 3 (Herbicidal rate of 40% or more and less than 70%). For the same molecule, the “F: southern crabgrass, herbicidal effect rating” value [13] was 0 (Herbicidal rate of 5% or less (almost no effect)), the “L: windgrass, herbicidal effect rating” value [14] was 0 (Herbicidal rate of 5% or less (almost no effect)) and the “J: blackgrass, herbicidal effect rating” value [15] was 0 (Herbicidal rate of 5% or less (almost no effect)). For the same molecule, the “H: barnyard grass, herbicidal effect rating” value [16] was 0 (Herbicidal rate of 5% or less (almost no effect)), the “K: Italian ryegrass, herbicidal effect rating” value [17] was 0 (Herbicidal rate of 5% or less (almost no effect)) and the “herbicidal effect on I: wild oat (criteria 0-5)” value [18, 30] was 1 (Herbicidal rate of 5% or more and less than 20%). For the same molecule, the “R: persian speedwell, herbicidal effect rating” value [19] was 5 (Herbicidal rate of 90% or more (almost completely withered)), the “herbicidal effect on O: lambsquarters (criteria 0-5)” value [20, 30] was 3 (Herbicidal rate of 40% or more and less than 70%) and the “I: wild oat, herbicidal effect rating” value [21] was 0 (Herbicidal rate of 5% or less (almost no effect)). The “herbicidal effect on J: blackgrass (criteria 0-5)” value [22, 30] was 4 (Herbicidal rate of 70% or more and less than 90%), the “N: redroot pigweed, herbicidal effect rating” value [23] was 3 (Herbicidal rate of 40% or more and less than 70%) and the “herbicidal effect on R: persian speedwell (criteria 0-5)” value [24, 30] was 5 (Herbicidal rate of 90% or more (almost completely withered)). For the same molecule, the “herbicidal effect on E: rice flat sedge” value [25] was 5 (Herbicidal rate of 90% or more (almost completely withered)), the “herbicidal effect on M: velvetleaf (criteria 0-5)” value [26, 30] was 4 (Herbicidal rate of 70% or more and less than 90%) and the “G: green foxtail, herbicidal effect rating” value [27] was 0 (Herbicidal rate of 5% or less (almost no effect)). The “M: velvetleaf, herbicidal effect rating” value [28] was 1 (Herbicidal rate of 5% or more and less than 20%) and the “herbicidal effect on P: chickweed (criteria 0-5)” value [29, 30] was 5 (Herbicidal rate of 90% or more (almost completely withered)).
`Cc1nn(C)c(=O)c(-c2c(-c3ccc(F)cc3)sc3cc(F)ccc23)c1O` [3-001] was tested, and the “K: Italian ryegrass, herbicidal effect grade” value ([1]; three weeks after application) was 5 (Herbicidal rate of 90% or more (almost completely withered)), the “herbicidal effect on D: Chinese sprangletop” value [2] was 5 (Herbicidal rate of 90% or more (almost completely withered)) and the “herbicidal effect, Q: false cleavers” value [3] was 3 (Herbicidal rate of 40% or more and less than 70%). The “herbicidal effect, P: chickweed” value [4] was 5 (Herbicidal rate of 90% or more (almost completely withered)), the “G: green foxtail, herbicidal effect grade” value ([5]; three weeks after application) was 5 (Herbicidal rate of 90% or more (almost completely withered)) and the “herbicidal effect on H: barnyard grass” value [6] was 5 (Herbicidal rate of 90% or more (almost completely withered)). For the same molecule, the “H: barnyard grass, herbicidal effect grade” value ([7]; three weeks after application) was 5 (Herbicidal rate of 90% or more (almost completely withered)), the “F: southern crabgrass, herbicidal effect grade” value ([8]; three weeks after application) was 5 (Herbicidal rate of 90% or more (almost completely withered)) and the “Q: false cleavers, herbicidal effect grade” value ([9]; three weeks after application) was 5 (Herbicidal rate of 90% or more (almost completely withered)). For the same molecule, the “herbicidal effect, O: lambsquarters” value [10] was 5 (Herbicidal rate of 90% or more (almost completely withered)), the “N: redroot pigweed, herbicidal effect grade” value ([11]; three weeks after application) was 5 (Herbicidal rate of 90% or more (almost completely withered)) and the “L: windgrass, herbicidal effect grade” value ([12]; three weeks after application) was 5 (Herbicidal rate of 90% or more (almost completely withered)). The “herbicidal effect, F: southern crabgrass” value [13] was 5 (Herbicidal rate of 90% or more (almost completely withered)), the “herbicidal effect, L: windgrass” value [14] was 4 (Herbicidal rate of 70% or more and less than 90%) and the “herbicidal effect, J: blackgrass” value [15] was 3 (Herbicidal rate of 40% or more and less than 70%). For the same molecule, the “herbicidal effect, H: barnyard grass” value [16] was 4 (Herbicidal rate of 70% or more and less than 90%), the “herbicidal effect, K: Italian ryegrass” value [17] was 5 (Herbicidal rate of 90% or more (almost completely withered)) and the “I: wild oat, herbicidal effect grade” value ([18]; three weeks after application) was 5 (Herbicidal rate of 90% or more (almost completely withered)). For the same molecule, the “herbicidal effect, R: persian speedwell” value [19] was 4 (Herbicidal rate of 70% or more and less than 90%), the “O: lambsquarters, herbicidal effect grade” value ([20]; three weeks after application) was 5 (Herbicidal rate of 90% or more (almost completely withered)) and the “herbicidal effect, I: wild oat” value [21] was 4 (Herbicidal rate of 70% or more and less than 90%). For the same molecule, the “J: blackgrass, herbicidal effect grade” value ([22]; three weeks after application) was 5 (Herbicidal rate of 90% or more (almost completely withered)), the “herbicidal effect, N: redroot pigweed” value [23] was 5 (Herbicidal rate of 90% or more (almost completely withered)) and the “R: persian speedwell, herbicidal effect grade” value ([24]; three weeks after application) was 5 (Herbicidal rate of 90% or more (almost completely withered)). For the same molecule, the “herbicidal effect on E: rice flat sedge” value [25] was 5 (Herbicidal rate of 90% or more (almost completely withered)), the “M: velvetleaf, herbicidal effect grade” value ([26]; three weeks after application) was 5 (Herbicidal rate of 90% or more (almost completely withered)) and the “herbicidal effect, G: green foxtail” value [27] was 4 (Herbicidal rate of 70% or more and less than 90%). The “herbicidal effect, M: velvetleaf” value [28] was 0 (Herbicidal rate of 5% or less (almost no effect)) and the “P: chickweed, herbicidal effect grade” value ([29]; three weeks after application) was 5 (Herbicidal rate of 90% or more (almost completely withered)).
